Laboratory results published in ChEMBL document CHEMBL4308841, “Synthesis, in vitro antiproliferative activity, and kinase inhibitory effects of pyrazole-containing diarylureas and diarylamides” (Eur J Med Chem, 2018).

Assays:
[1] = test system: PC-3; assay: Growth inhibition of human PC3 cells assessed as cell growth at 1 uM incubated for 48 hrs by sulforhodamine B assay relative to control; assay type: functional; settings: PC-3, 48 h, read-out: Activity
[2] = test system: SK-MEL-5; assay: Growth inhibition of human SK-MEL-5 cells incubated for 48 hrs by sulforhodamine B assay; assay type: functional, cell-based; settings: SK-MEL-5, 48 h
[3] = test system: MOLT-4; assay: Growth inhibition of human MOLT4 cells assessed as cell growth at 100 uM incubated for 48 hrs by sulforhodamine B assay relative to control; assay type: functional; settings: MOLT-4, 48 h, read-out: Activity
[4] = test system: OVCAR-4; assay: Growth inhibition of human OVCAR4 cells incubated for 48 hrs by sulforhodamine B assay; assay type: functional, cell-based; settings: OVCAR-4, 48 h
[5] = test system: ACHN; assay: Growth inhibition of human ACHN cells assessed as cell growth at 0.1 uM incubated for 48 hrs by sulforhodamine B assay relative to control; assay type: functional; settings: read-out: Activity
[6] = test system: SF-295; assay: Growth inhibition of human SF295 cells assessed as cell growth at 0.1 uM incubated for 48 hrs by sulforhodamine B assay relative to control; assay type: functional; settings: SF-295, 48 h, read-out: Activity
[7] = test system: K562; assay: Growth inhibition of human K562 cells incubated for 48 hrs by sulforhodamine B assay; assay type: functional, cell-based; settings: K562, 48 h
[8] = test system: U-251; assay: Growth inhibition of human U251 cells assessed as cell growth at 100 uM incubated for 48 hrs by sulforhodamine B assay relative to control; assay type: functional; settings: U-251, 48 h, read-out: Activity
[9] = test system: HOP-62; assay: Growth inhibition of human HOP62 cells assessed as cell growth at 0.1 uM incubated for 48 hrs by sulforhodamine B assay relative to control; assay type: functional; settings: HOP-62, 48 h, read-out: Activity
[10] = test system: HT-29; assay: Growth inhibition of human HT-29 cells assessed as cell growth at 0.01 uM incubated for 48 hrs by sulforhodamine B assay relative to control; assay type: functional; settings: HT-29, 48 h, read-out: Activity
[11] = test system: M14; assay: Growth inhibition of human M14 cells assessed as cell growth at 100 uM incubated for 48 hrs by sulforhodamine B assay relative to control; assay type: functional; settings: M14, 48 h, read-out: Activity
[12] = test system: A549; assay: Growth inhibition of human A549/ATCC cells assessed as cell growth at 0.01 uM incubated for 48 hrs by sulforhodamine B assay relative to control; assay type: functional; settings: A549, 48 h, read-out: Activity
[13] = test system: NCI-H460; assay: Growth inhibition of human NCI-H460 cells assessed as cell growth at 100 uM incubated for 48 hrs by sulforhodamine B assay relative to control; assay type: functional; settings: NCI-H460, 48 h, read-out: Activity
[14] = test system: T47D; assay: Growth inhibition of human T47D cells assessed as cell growth at 0.01 uM incubated for 48 hrs by sulforhodamine B assay relative to control; assay type: functional; settings: read-out: Activity
[15] = test system: RPMI-8226; assay: Growth inhibition of human RPMI8226 cells assessed as cell growth at 0.01 uM incubated for 48 hrs by sulforhodamine B assay relative to control; assay type: functional; settings: RPMI-8226, 48 h, read-out: Activity
[16] = test system: 786-0; assay: Growth inhibition of human 786-0 cells assessed as cell growth at 100 uM incubated for 48 hrs by sulforhodamine B assay relative to control; assay type: functional; settings: 786-0, 48 h, read-out: Activity
[17] = test system: T47D; assay: Growth inhibition of human T47D cells incubated for 48 hrs by sulforhodamine B assay; assay type: functional, cell-based
[18] = test system: OVCAR-8; assay: Growth inhibition of human OVCAR8 cells assessed as cell growth at 0.01 uM incubated for 48 hrs by sulforhodamine B assay relative to control; assay type: functional; settings: OVCAR-8, 48 h, read-out: Activity
[19] = test system: M14; assay: Growth inhibition of human M14 cells assessed as cell growth at 0.01 uM incubated for 48 hrs by sulforhodamine B assay relative to control; assay type: functional; settings: M14, 48 h, read-out: Activity
[20] = test system: OVCAR-4; assay: Growth inhibition of human OVCAR4 cells assessed as cell growth at 1 uM incubated for 48 hrs by sulforhodamine B assay relative to control; assay type: functional; settings: OVCAR-4, 48 h, read-out: Activity
[21] = test system: HCT-15; assay: Growth inhibition of human HCT15 cells assessed as cell growth at 100 uM incubated for 48 hrs by sulforhodamine B assay relative to control; assay type: functional; settings: HCT-15, 48 h, read-out: Activity
[22] = test system: IGROV-1; assay: Growth inhibition of human IGROV1 cells assessed as cell growth at 0.01 uM incubated for 48 hrs by sulforhodamine B assay relative to control; assay type: functional; settings: IGROV-1, 48 h, read-out: Activity
[23] = test system: HOP-62; assay: Growth inhibition of human HOP62 cells assessed as cell growth at 1 uM incubated for 48 hrs by sulforhodamine B assay relative to control; assay type: functional; settings: HOP-62, 48 h, read-out: Activity
[24] = test system: M14; assay: Growth inhibition of human M14 cells assessed as cell growth at 0.1 uM incubated for 48 hrs by sulforhodamine B assay relative to control; assay type: functional; settings: M14, 48 h, read-out: Activity
[25] = test system: SK-MEL-2; assay: Growth inhibition of human SK-MEL-2 cells assessed as cell growth at 1 uM incubated for 48 hrs by sulforhodamine B assay relative to control; assay type: functional; settings: SK-MEL-2, 48 h, read-out: Activity
[26] = test system: UACC-62; assay: Growth inhibition of human UACC62 cells assessed as cell growth at 0.01 uM incubated for 48 hrs by sulforhodamine B assay relative to control; assay type: functional; settings: UACC-62, 48 h, read-out: Activity
[27] = test system: NCI-H23; assay: Growth inhibition of human NCI-H23 cells assessed as cell growth at 100 uM incubated for 48 hrs by sulforhodamine B assay relative to control; assay type: functional; settings: NCI-H23, 48 h, read-out: Activity
[28] = test system: SW-620; assay: Growth inhibition of human SW620 cells assessed as cell growth at 0.01 uM incubated for 48 hrs by sulforhodamine B assay relative to control; assay type: functional; settings: SW-620, 48 h, read-out: Activity
[29] = test system: KM12; assay: Growth inhibition of human KM12 cells assessed as cell growth at 1 uM incubated for 48 hrs by sulforhodamine B assay relative to control; assay type: functional; settings: KM12, 48 h, read-out: Activity
[30] = test system: NCI-H23; assay: Growth inhibition of human NCI-H23 cells assessed as cell growth at 0.1 uM incubated for 48 hrs by sulforhodamine B assay relative to control; assay type: functional; settings: NCI-H23, 48 h, read-out: Activity
[31] = test system: BT-549; assay: Growth inhibition of human BT549 cells assessed as cell growth at 0.1 uM incubated for 48 hrs by sulforhodamine B assay relative to control; assay type: functional; settings: BT-549, 48 h, read-out: Activity
[32] = read-out: LC50 (the source's name)
[33] = read-out: pLC50 (the source's name) (converted)

O=C(Nc1cccc(-n2cc(-c3ccncc3)c(-c3cc(O)cc(Cl)c3)n2)c1)Nc1ccc(Cl)c(Cl)c1
growth at 1 µM [1]: 72% | GI50 ([2]; read-out: GI50): 1.52 µM | CC50 [2, 32]: 5.75 µM | TGI ([2]; read-out: TGI): 30.4 µM | GI50 ([2]; read-out: pGI50 (converted)): 1.62 µM | CC50 [2, 33]: 5.75 µM | TGI ([2]; read-out: pTGI (converted)): 3.02 µM | growth at 100 µM [3]: -10% | GI50 ([4]; read-out: GI50): 2.9 µM | CC50 [4, 32]: > 100 µM | GI50 ([4]; read-out: pGI50 (converted)): 2.95 µM | CC50 [4, 33]: > 100 µM | growth at 0.1 µM [5]: 95% | growth at 0.1 µM [6]: 87% | GI50 ([7]; read-out: GI50): 2.56 µM | LC50 ([7]; read-out: LC50): > 100 µM | TGI ([7]; read-out: TGI): > 100 µM | GI50 ([7]; read-out: pGI50 (converted)): 2.57 µM | LC50 ([7]; read-out: pLC50 (converted)): > 100 µM | TGI ([7]; read-out: pTGI (converted)): > 100 µM | growth at 100 µM [8]: -57% | growth at 0.1 µM [9]: 97% | growth at 0.01 µM [10]: 91% | growth at 100 µM [11]: -69% | growth at 0.01 µM [12]: 96% | growth at 100 µM [13]: -48% | growth at 0.01 µM [14]: 106% | growth at 0.01 µM [15]: 104% | growth at 100 µM [16]: -58% | GI50 ([17]; read-out: GI50): 2.32 µM | CC50 [17, 32]: > 100 µM | TGI ([17]; read-out: TGI): 61.7 µM | GI50 ([17]; read-out: pGI50 (converted)): 2.4 µM | CC50 [17, 33]: > 100 µM | TGI ([17]; read-out: pTGI (converted)): 6.17 µM | growth at 0.01 µM [18]: 102% | growth at 0.01 µM [19]: 99% | growth at 1 µM [20]: 100% | growth at 100 µM [21]: -23% | growth at 0.01 µM [22]: 98% | growth at 1 µM [23]: 97% | growth at 0.1 µM [24]: 93% | growth at 1 µM [25]: 56% | growth at 0.01 µM [26]: 96% | growth at 100 µM [27]: -35% | growth at 0.01 µM [28]: 96% | growth at 1 µM [29]: 72% | growth at 0.1 µM [30]: 97% | growth at 0.1 µM [31]: 93%

O=C(Nc1cccc(-n2cc(-c3ccncc3)c(-c3cc(O)cc(Cl)c3)n2)c1)c1ccc(N2CCOCC2)c(C(F)(F)F)c1
growth at 1 µM [1]: 51% | GI50 ([2]; read-out: GI50): 2.33 µM | CC50 [2, 32]: 45.4 µM | TGI ([2]; read-out: TGI): 84.9 µM | GI50 ([2]; read-out: pGI50 (converted)): 2.34 µM | CC50 [2, 33]: 46.8 µM | TGI ([2]; read-out: pTGI (converted)): 8.51 µM | growth at 100 µM [3]: -20% | GI50 ([4]; read-out: GI50): > 100 µM | CC50 [4, 32]: > 100 µM | TGI ([4]; read-out: TGI): > 100 µM | GI50 ([4]; read-out: pGI50 (converted)): > 100 µM | CC50 [4, 33]: > 100 µM | TGI ([4]; read-out: pTGI (converted)): > 100 µM | growth at 0.1 µM [5]: 99% | growth at 0.1 µM [6]: 90% | GI50 ([7]; read-out: GI50): 0.554 µM | LC50 ([7]; read-out: LC50): > 100 µM | TGI ([7]; read-out: TGI): 40.8 µM | GI50 ([7]; read-out: pGI50 (converted)): 0.562 µM | LC50 ([7]; read-out: pLC50 (converted)): > 100 µM | TGI ([7]; read-out: pTGI (converted)): 4.9 µM | growth at 100 µM [8]: -69% | growth at 0.1 µM [9]: 112% | growth at 0.01 µM [10]: 93% | growth at 100 µM [11]: -54% | growth at 0.01 µM [12]: 103% | growth at 100 µM [13]: -47% | growth at 0.01 µM [14]: 97% | growth at 0.01 µM [15]: 104% | growth at 100 µM [16]: -82% | GI50 ([17]; read-out: GI50): 3.81 µM | CC50 [17, 32]: > 100 µM | TGI ([17]; read-out: TGI): > 100 µM | GI50 ([17]; read-out: pGI50 (converted)): 3.8 µM | CC50 [17, 33]: > 100 µM | TGI ([17]; read-out: pTGI (converted)): > 100 µM | growth at 0.01 µM [18]: 101% | growth at 0.01 µM [19]: 95% | growth at 1 µM [20]: 99% | growth at 100 µM [21]: -54% | growth at 0.01 µM [22]: 93% | growth at 1 µM [23]: 85% | growth at 0.1 µM [24]: 91% | growth at 1 µM [25]: 77% | growth at 0.01 µM [26]: 96% | growth at 100 µM [27]: -12% | growth at 0.01 µM [28]: 103% | growth at 1 µM [29]: 54% | growth at 0.1 µM [30]: 104% | growth at 0.1 µM [31]: 97%
